Test: Effects of oral water administration on ITE dosed mice
Type: in vivo
Set-up: key to feces appearance: Moderate; Dry
Procedure: Oral injection of water was initiated at the same day i.p. administration of ITE was started. Daily oral gavage at 10 or 20 ml/kg was performed immediately following daily i.p. injection of ITE or DMSO continuously for the entire duration of the study. Both oral and i.p. injection were accidentally skipped at day 14 due to a mistake of the experimenter(s) and all of the other dosing were executed normally. Bodyweights (individual), food consumed (in group), feces weights (in group), and feces appearance (in group) were recorded every two days. Death of animal(s) and approximate cause of death etc. were also recorded.

[1] = ITE-L 200 mg/kg i.p. + Water-0, day 4
[2] = ITE-L 200 mg/kg i.p. + Water-0, day 6
[3] = ITE-L 200 mg/kg i.p. + Water-0, day 8
[4] = ITE-L 200 mg/kg i.p. + Water-0, day 10
[5] = ITE-L 200 mg/kg i.p. + Water-0, day 12
[6] = ITE-L 200 mg/kg i.p. + Water-0, day 14
[7] = ITE-L 200 mg/kg i.p. + Water-0, day 18 (line r16)
[8] = ITE-L 200 mg/kg i.p. + Water-0, day 18 (line r17)
[9] = ITE-L 200 mg/kg i.p. + Water-0, day 20
[10] = ITE-L 200 mg/kg i.p. + Water-0, day 22
[11] = ITE-L 200 mg/kg i.p. + Water-0, day 24
[12] = ITE-L 200 mg/kg i.p. + Water-0, day 26
[13] = ITE-L 200 mg/kg i.p. + Water-0, day 28
[14] = ITE-L 200 mg/kg i.p. + Water-0, day 30
[15] = ITE-L 200 mg/kg i.p. + Water-0, day 32
[16] = ITE-L 200 mg/kg i.p. + Water-0, day 34
[17] = ITE-L 200 mg/kg i.p. + Water-0, day 36
[18] = ITE-L 200 mg/kg i.p. + Water-H 20 ml/kg, day 4
[19] = ITE-L 200 mg/kg i.p. + Water-H 20 ml/kg, day 6
[20] = ITE-L 200 mg/kg i.p. + Water-H 20 ml/kg, day 8
[21] = ITE-L 200 mg/kg i.p. + Water-H 20 ml/kg, day 10
[22] = ITE-L 200 mg/kg i.p. + Water-H 20 ml/kg, day 12
[23] = ITE-L 200 mg/kg i.p. + Water-H 20 ml/kg, day 14
[24] = ITE-L 200 mg/kg i.p. + Water-H 20 ml/kg, day 18 (line r16)
[25] = ITE-L 200 mg/kg i.p. + Water-H 20 ml/kg, day 18 (line r17)
[26] = ITE-L 200 mg/kg i.p. + Water-H 20 ml/kg, day 20
[27] = ITE-L 200 mg/kg i.p. + Water-H 20 ml/kg, day 22
[28] = ITE-L 200 mg/kg i.p. + Water-H 20 ml/kg, day 24
[29] = ITE-L 200 mg/kg i.p. + Water-H 20 ml/kg, day 26
[30] = ITE-L 200 mg/kg i.p. + Water-H 20 ml/kg, day 28
[31] = ITE-L 200 mg/kg i.p. + Water-H 20 ml/kg, day 30
[32] = ITE-L 200 mg/kg i.p. + Water-H 20 ml/kg, day 32
[33] = ITE-L 200 mg/kg i.p. + Water-H 20 ml/kg, day 34
[34] = ITE-L 200 mg/kg i.p. + Water-H 20 ml/kg, day 36
[35] = ITE-L 200 mg/kg i.p. + Water-L 10 ml/kg, day 4
[36] = ITE-L 200 mg/kg i.p. + Water-L 10 ml/kg, day 6
[37] = ITE-L 200 mg/kg i.p. + Water-L 10 ml/kg, day 8
[38] = ITE-L 200 mg/kg i.p. + Water-L 10 ml/kg, day 10
[39] = ITE-L 200 mg/kg i.p. + Water-L 10 ml/kg, day 12
[40] = ITE-L 200 mg/kg i.p. + Water-L 10 ml/kg, day 14
[41] = ITE-L 200 mg/kg i.p. + Water-L 10 ml/kg, day 18 (line r16)
[42] = ITE-L 200 mg/kg i.p. + Water-L 10 ml/kg, day 18 (line r17)
[43] = ITE-L 200 mg/kg i.p. + Water-L 10 ml/kg, day 20
[44] = ITE-L 200 mg/kg i.p. + Water-L 10 ml/kg, day 22
[45] = ITE-L 200 mg/kg i.p. + Water-L 10 ml/kg, day 24
[46] = ITE-L 200 mg/kg i.p. + Water-L 10 ml/kg, day 26
[47] = ITE-L 200 mg/kg i.p. + Water-L 10 ml/kg, day 28
[48] = ITE-L 200 mg/kg i.p. + Water-L 10 ml/kg, day 30
[49] = ITE-L 200 mg/kg i.p. + Water-L 10 ml/kg, day 32
[50] = ITE-L 200 mg/kg i.p. + Water-L 10 ml/kg, day 34
[51] = ITE-L 200 mg/kg i.p. + Water-L 10 ml/kg, day 36

For `COC(=O)c1csc(C(=O)c2c[nH]c3ccccc23)n1` [ITE, 2-(1′H-indole-3′-carbonyl)-thiazole-4-carboxylic acid methyl ester], the feces appearance [1] was “M”, the “number of mice that died” value [1] was 0 and the feces appearance [2] was “M”. For the same compound, the “number of mice that died” value [2] was 0, the feces appearance [3] was “D” and the “number of mice that died” value [3] was 0. For the same compound, the feces appearance [4] was “D”, the “number of mice that died” value [4] was 0 and the feces appearance [5] was “D”. For the same compound, the “number of mice that died” value [5] was 0, the feces appearance [6] was “D” and the “number of mice that died” value [6] was 0. For the same compound, the feces appearance [7] was “D”, the “number of mice that died” value [7] was 0 and the feces appearance [8] was “D”. The “number of mice that died” value [8] was 0, the feces appearance [9] was “D” and the “number of mice that died” value [9] was 0. For the same compound, the feces appearance [10] was “D”, the “number of mice that died” value [10] was 0 and the feces appearance [11] was “D”. For the same compound, the “number of mice that died” value [11] was 0, the feces appearance [12] was “D” and the “number of mice that died” value [12] was 0. The feces appearance [13] was “D”, the “number of mice that died” value [13] was 1 and the feces appearance [14] was “D”. The “number of mice that died” value [14] was 1, the feces appearance [15] was “D” and the “number of mice that died” value [15] was 1. For the same compound, the feces appearance [16] was “D”, the “number of mice that died” value [16] was 1 and the feces appearance [17] was “D”. For the same compound, the “number of mice that died” value [17] was 1, the feces appearance [18] was “M” and the “number of mice that died” value [18] was 0. The feces appearance [19] was “M”, the “number of mice that died” value [19] was 0 and the feces appearance [20] was “D”. For the same compound, the “number of mice that died” value [20] was 0, the feces appearance [21] was “D” and the “number of mice that died” value [21] was 0. The feces appearance [22] was “D”, the “number of mice that died” value [22] was 0 and the feces appearance [23] was “D”. The “number of mice that died” value [23] was 0, the feces appearance [24] was “D” and the “number of mice that died” value [24] was 0. For the same compound, the feces appearance [25] was “D”, the “number of mice that died” value [25] was 0 and the feces appearance [26] was “D”. The “number of mice that died” value [26] was 0, the feces appearance [27] was “D” and the “number of mice that died” value [27] was 0. For the same compound, the feces appearance [28] was “D”, the “number of mice that died” value [28] was 0 and the feces appearance [29] was “D”. The “number of mice that died” value [29] was 0, the feces appearance [30] was “M” and the “number of mice that died” value [30] was 0. The feces appearance [31] was “M”, the “number of mice that died” value [31] was 0 and the feces appearance [32] was “M”. The “number of mice that died” value [32] was 0, the feces appearance [33] was “M” and the “number of mice that died” value [33] was 0. For the same compound, the feces appearance [34] was “M”, the “number of mice that died” value [34] was 0 and the feces appearance [35] was “M”. For the same compound, the “number of mice that died” value [35] was 0, the feces appearance [36] was “M” and the “number of mice that died” value [36] was 0. The feces appearance [37] was “D”, the “number of mice that died” value [37] was 0 and the feces appearance [38] was “D”. For the same compound, the “number of mice that died” value [38] was 0, the feces appearance [39] was “D” and the “number of mice that died” value [39] was 0. The feces appearance [40] was “D”, the “number of mice that died” value [40] was 0 and the feces appearance [41] was “D”. For the same compound, the “number of mice that died” value [41] was 0, the feces appearance [42] was “D” and the “number of mice that died” value [42] was 0. For the same compound, the feces appearance [43] was “D”, the “number of mice that died” value [43] was 0 and the feces appearance [44] was “D”. For the same compound, the “number of mice that died” value [44] was 0, the feces appearance [45] was “D” and the “number of mice that died” value [45] was 0. For the same compound, the feces appearance [46] was “D”, the “number of mice that died” value [46] was 0 and the feces appearance [47] was “M”. For the same compound, the “number of mice that died” value [47] was 0, the feces appearance [48] was “M” and the “number of mice that died” value [48] was 0. The feces appearance [49] was “M”, the “number of mice that died” value [49] was 0 and the feces appearance [50] was “M”. For the same compound, the “number of mice that died” value [50] was 0, the feces appearance [51] was “M” and the “number of mice that died” value [51] was 0.

Reference: patent publication US10632106B2, “Methods of cancer treatment with 2-(1′H-Indole-3′-carbonyl)-thiazole-4-carboxylic acid methyl ester” (Ariagen, Inc., priority 2009, dated 2020)
